Among the data in patent publication US8541407B2 (ArQule, Inc., priority 2010, dated 2013) are IC50 values, retold here.

Structures can show the parent of a compound that is named as a salt.

The test system of one assay is AN3-CA. Nature of the assay: MTS Assay, cell proliferation analysis (AN3-CA). Conditions: Homo sapiens; AN3-CA cells; 72 hours; 10 Percent FBS. Type of assay: cell-based. As for the experimental part:
(§1) Cell proliferation analysis. Cell survival was determined by the MTS assay. Briefly, cells were plated in a 96-well plate at 2,000-10,000 cells per well, cultured for 24 hours in complete growth medium, and then treated with representative compounds of the invention or combinations thereof for 72 hours. MTS was added and incubated for 4 hours, followed by assessment of cell viability by using the microplate reader at 570 nm. Data were normalized to untreated controls and analyzed.

For a further assay, the system named is A2780. Description: MTS Assay, cell proliferation analysis (A2780). Type of assay: cell-based. Conditions: Homo sapiens; A2780 cells; 72 hours; 10 Percent FBS. As for the experimental part:
as §1

Another assay concerns the target AKT1 (Homo sapiens (Human), UniProt P31749). Description: Inactive Akt Alpha Screen Assay. Conditions: non *labeled: Akt Alpha Screen assay; read-out: AKT1 biochemical assay, IC50. In a few lines: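 AKT1 activated in situ by PDK1, MAPKAPK2, lipid vesicles and ATP, then phosphorylating biotinylated crosstide for 30 min at room temperature. Stopped with 10 mM EDTA; phosphopeptide detected by AlphaScreen using phospho-AKT substrate antibody (1:350), Protein A acceptor and streptavidin donor beads, 90 min dark, ex 640/em 570 nm.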

Sequence of AKT1 (P31749 whole entry): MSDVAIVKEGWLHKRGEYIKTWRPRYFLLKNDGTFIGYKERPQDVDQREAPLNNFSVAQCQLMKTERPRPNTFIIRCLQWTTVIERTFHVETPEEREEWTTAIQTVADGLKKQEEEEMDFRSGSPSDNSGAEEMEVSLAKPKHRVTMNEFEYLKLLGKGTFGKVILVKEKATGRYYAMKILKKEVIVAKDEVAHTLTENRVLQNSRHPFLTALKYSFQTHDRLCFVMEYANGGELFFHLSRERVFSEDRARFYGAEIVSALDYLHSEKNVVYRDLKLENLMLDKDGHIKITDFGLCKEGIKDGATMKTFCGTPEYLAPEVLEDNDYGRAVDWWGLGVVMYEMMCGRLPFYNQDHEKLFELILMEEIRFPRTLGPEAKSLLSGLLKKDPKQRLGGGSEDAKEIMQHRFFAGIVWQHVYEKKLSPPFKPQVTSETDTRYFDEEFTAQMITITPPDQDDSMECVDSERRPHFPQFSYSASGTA

Consider `O=C(Nc1ccc(-c2nnc3n2-c2cccnc2Nc2ccccc2-3)cc1)c1ccccc1` [Example 59, N-(4-(9H-benzo[f]pyrido[2,3-b][1,2,4]triazolo[4,3-d][1,4]diazepin-3-yl)phenyl)benzamide], for which the 50% inhibitory concentration (IC50) came out at 28 µM with AN3-CA, 32 µM in the assay on A2780 and 0.07 µM at AKT1.
Regarding `O=C(NCCc1ccc(-c2nnc3n2-c2cccnc2Nc2ccccc2-3)cc1)Nc1ccccc1` [Example 110, 1-(4-(9H-benzo[f]pyrido[2,3-b][1,2,4]triazolo[4,3-d][1,4]diazepin-3-yl)phenethyl)-3-phenylurea], the figures for the IC50 in the assay on AN3-CA, with A2780 and on AKT1 were 8 µM, 6 µM and 0.12 µM, respectively.
For `COc1cccc(S(=O)(=O)NCc2ccc(-c3nnc4n3-c3cccnc3Nc3ccccc3-4)cc2)c1` [Example 114, N-(4-(9H-benzo[f]pyrido[2,3-b][1,2,4]triazolo[4,3-d][1,4]diazepin-3-yl)benzyl)-3-methoxybenzenesulfonamide] the same measures were 25 µM, 16 µM and 0.14 µM.
For `Cc1cccc(S(=O)(=O)NCc2ccc(-c3nnc4n3-c3cccnc3Nc3ccccc3-4)cc2)c1` [Example 115, N-(4-(9H-benzo[f]pyrido[2,3-b][1,2,4]triazolo[4,3-d][1,4]diazepin-3-yl)benzyl)-3-methylbenzenesulfonamide] the same measures were 28 µM, 16 µM and 0.11 µM.
Turning to `O=S(=O)(NCc1ccc(-c2nnc3n2-c2cccnc2Nc2ccccc2-3)cc1)c1cccc(Cl)c1` [Example 116, N-(4-(9H-benzo[f]pyrido[2,3-b][1,2,4]triazolo[4,3-d][1,4]diazepin-3-yl)benzyl)-3-chlorobenzenesulfonamide], the IC50 in the assay on AN3-CA stood at 23 µM; in the assay with A2780, 21 µM; on AKT1 it was 0.15 µM.
For the compound `O=S(=O)(NCc1ccc(-c2nnc3n2-c2cccnc2Nc2ccccc2-3)cc1)c1ccc(F)cc1` [Example 117, N-(4-(9H-benzo[f]pyrido[2,3-b][1,2,4]triazolo[4,3-d][1,4]diazepin-3-yl)benzyl)-4-fluorobenzenesulfonamide], the IC50 in the assay with AN3-CA worked out at 37 µM; in the assay with A2780, 19 µM; at AKT1, 0.12 µM.
On the same counts, the results for `Cc1ccc(S(=O)(=O)NCc2ccc(-c3nnc4n3-c3cccnc3Nc3ccccc3-4)cc2)cc1` [Example 118, N-(4-(9H-benzo[f]pyrido[2,3-b][1,2,4]triazolo[4,3-d][1,4]diazepin-3-yl)benzyl)-4-methylbenzenesulfonamide] are 28 µM, 14 µM and 0.11 µM.
On the same counts, the results for `O=C(NCc1ccc(-c2nnc3n2-c2cccnc2Nc2ccccc2-3)cc1)Nc1ccccc1F` [Example 121, 1-(4-(9H-benzo[f]pyrido[2,3-b][1,2,4]triazolo[4,3-d][1,4]diazepin-3-yl)benzyl)-3-(2-fluorophenyl)urea] are 27 µM, 16 µM and 0.31 µM.
On the same counts, the results for `COc1cccc(NC(=O)NCc2ccc(-c3nnc4n3-c3cccnc3Nc3ccccc3-4)cc2)c1` [Example 123, 1-(4-(9H-benzo[f]pyrido[2,3-b][1,2,4]triazolo[4,3-d][1,4]diazepin-3-yl)benzyl)-3-(3-methoxyphenyl)urea] are 48 µM, 27 µM and 0.13 µM.
For the compound `O=S(=O)(NC1CCN(Cc2ccc(-c3nnc4n3-c3cccnc3Nc3ccccc3-4)cc2)CC1)c1ccc2c(c1)OCCO2` [Example 156, N-(1-(4-(9H-benzo[f]pyrido[2,3-b][1,2,4]triazolo[4,3-d][1,4]diazepin-3-yl)benzyl)piperidin-4-yl)-2,3-dihydrobenzo[b][1,4]dioxine-6-sulfonamide], the IC50 in the assay with AN3-CA stood at 20 µM; with A2780 it was 15 µM; on AKT1 it was 2 µM.
For `Cc1ccc(NC(=O)NC2CCN(Cc3ccc(-c4nnc5n4-c4cccnc4Nc4ccccc4-5)cc3)CC2)cc1` [Example 168, 1-(1-(4-(9H-benzo[f]pyrido[2,3-b][1,2,4]triazolo[4,3-d][1,4]diazepin-3-yl)benzyl)piperidin-4-yl)-3-(p-tolyl)urea], the IC50 turned out to be 22 µM in the assay on AN3-CA, 15 µM in the assay with A2780 and 0.44 µM at AKT1.
Turning to `O=C(Nc1cccc(C(F)(F)F)c1)NC1CCN(Cc2ccc(-c3nnc4n3-c3cccnc3Nc3ccccc3-4)cc2)CC1` [Example 174, 1-(1-(4-(9H-benzo[f]pyrido[2,3-b][1,2,4]triazolo[4,3-d][1,4]diazepin-3-yl)benzyl)piperidin-4-yl)-3-(3-(trifluoromethyl)phenyl)urea], the IC50 in the assay with AN3-CA stood at 13 µM; with A2780, 8 µM; on AKT1 it was 0.63 µM.
For `O=C(NCCc1cccs1)NC1CCN(Cc2ccc(-c3nnc4n3-c3cccnc3Nc3ccccc3-4)cc2)CC1` [Example 182, 1-(1-(4-(9H-benzo[f]pyrido[2,3-b][1,2,4]triazolo[4,3-d][1,4]diazepin-3-yl)benzyl)piperidin-4-yl)-3-(2-(thiophen-2-yl)ethyl)urea] the same measures were 28 µM, 10 µM and 0.75 µM.
`c1ccc(-n2cc(COCc3ccc(-c4nnc5n4-c4cccnc4Nc4ccccc4-5)cc3)nn2)cc1` [Example 186, 3-(4-(((1-phenyl-1H-1,2,3-triazol-4-yl)methoxy)methyl)phenyl)-9H-benzo[f]pyrido[2,3-b][1,2,4]triazolo[4,3-d][1,4]diazepine]: the IC50 with AN3-CA was 4 µM; in the assay on A2780, 3 µM; at AKT1, 0.49 µM.
Consider `c1ccc2c(c1)Nc1ncccc1-n1c(-c3ccc(CN4CCC(c5c[nH]c6ccccc56)CC4)cc3)nnc1-2` [Example 187, 3-(4-((4-(1H-indol-3-yl)piperidin-1-yl)methyl)phenyl)-9H-benzo[f]pyrido[2,3-b][1,2,4]triazolo[4,3-d][1,4]diazepine], for which the IC50 in the assay with AN3-CA stood at 8 µM; in the assay with A2780, 6 µM; on AKT1, 0.5 µM.
`O=C(NC1(c2ccc(-c3nnc4n3-c3cccnc3Nc3ccccc3-4)cc2)CCC1)c1ccccc1` [Example 193, N-(1-(4-(9H-benzo[f]pyrido[2,3-b][1,2,4]triazolo[4,3-d][1,4]diazepin-3-yl)phenyl)cyclobutyl)benzamide]: the results for the IC50 in the assay on AN3-CA, in the assay with A2780 and at AKT1 were 22 µM, 12 µM and 0.073 µM, respectively.
For the compound `O=S(=O)(NC1(c2ccc(-c3nnc4n3-c3cccnc3Nc3ccccc3-4)cc2)CCC1)c1ccccc1` [Example 195, N-(1-(4-(9H-benzo[f]pyrido[2,3-b][1,2,4]triazolo[4,3-d][1,4]diazepin-3-yl)phenyl)cyclobutyl)benzenesulfonamide], the IC50 in the assay with AN3-CA is 16 µM; in the assay on A2780, 11 µM; on AKT1 it was 0.28 µM.
As for `NC1(c2ccc(-c3nnc4n3-c3cccnc3Nc3ccccc3-4)cc2)CC1` [Example 222, 1-(4-(9H-benzo[f]pyrido[2,3-b][1,2,4]triazolo[4,3-d][1,4]diazepin-3-yl)phenyl)cyclopropanamine], the IC50 on AKT1 stood at 0.14 µM.
On the same count and under the same terms, then `Cc1ccc2c(c1)Nc1ncccc1-n1c(-c3ccc(C4(N)CCC4)cc3)nnc1-2` [Example 223, 1-(4-(11-methyl-9H-benzo[f]pyrido[2,3-b][1,2,4]triazolo[4,3-d][1,4]diazepin-3-yl)phenyl)cyclobutanamine], with 0.49 µM; and `NC1(c2ccc(-c3nnc4n3-c3cccnc3Nc3ccc(-c5ccccc5)cc3-4)cc2)CCC1` [Example 224, 1-(4-(12-phenyl-9H-benzo[f]pyrido[2,3-b][1,2,4]triazolo[4,3-d][1,4]diazepin-3-yl)phenyl)cyclobutanamine], with 1.2 µM.
Turning to `OCc1ccc(-c2nnc3n2-c2cccnc2Nc2ccc(Br)cc2-3)cc1` [Example 225, (4-(12-bromo-9H-benzo[f]pyrido[2,3-b][1,2,4]triazolo[4,3-d][1,4]diazepin-3-yl)phenyl)methanol], at AKT1, the half-maximal inhibitory concentration (IC50) worked out at 5.2 µM.
Turning to `O=C(NC1(c2ccc(-c3nnc4n3-c3ccc(Cl)nc3Nc3ccccc3-4)cc2)CCC1)C(F)(F)F` [Example 226, N-(1-(4-(7-chloro-9H-benzo[f]pyrido[2,3-b][1,2,4]triazolo[4,3-d][1,4]diazepin-3-yl)phenyl)cyclobutyl)-2,2,2-trifluoroacetamide], the IC50 on AKT1 is 9.3 µM.
On to `NCc1ccc(-c2nnc3n2-c2cccnc2Nc2ccc(Br)cc2-3)cc1` [Example 227, (4-(12-bromo-9H-benzo[f]pyrido[2,3-b][1,2,4]triazolo[4,3-d][1,4]diazepin-3-yl)phenyl)methanamine], for which, on AKT1, the IC50 was determined as 6.1 µM.
Same read-out and setting: then `c1ccc(CCNC2(c3ccc(-c4nnc5n4-c4cccnc4Nc4ccccc4-5)cc3)CCC2)cc1` [Example 229, 1-(4-(9H-benzo[f]pyrido[2,3-b][1,2,4]triazolo[4,3-d][1,4]diazepin-3-yl)phenyl)-N-phenethylcyclobutanamine], with 3.8 µM; and `NC1(c2ccc(-c3nnc4n3-c3cc(-c5ccccc5)cnc3Nc3ccccc3-4)cc2)CCC1` [Example 230, 1-(4-(6-phenyl-9H-benzo[f]pyrido[2,3-b][1,2,4]triazolo[4,3-d][1,4]diazepin-3-yl)phenyl)cyclobutanamine], with 2.6 µM; and `Fc1ccc(-c2nnc3n2-c2cccnc2Nc2ccccc2-3)cc1` [hydrochloride], with 23 µM.
As for `c1ccc2c(c1)Nc1ncccc1-n1c(-c3ccc4ccccc4c3)nnc1-2` [hydrochloride], the IC50 at AKT1 came to 29 µM.
